The values that follow come from patent US20140120083A1, “TREATMENT OF CANCERS USING PI3 KINASE ISOFORM MODULATORS” (INFINITY PHARMACEUTICALS, INC., priority 2012, published 2014).

pEC50, pIC50: −log10 of the molar value.

One assay has as its target T1, PI3K γ (Homo sapiens, UniProt P48736).
T1 construct: purchased Sigma
The experiment in a line: In vitro IC50, PI3K γ. It counts as biochemical. An excerpt:
(§1) An exemplary system is PI 3-Kinase (human) HTRF™ Assay from Upstate.

The target of the next assay is T2, PI3K α (Homo sapiens, UniProt P42336).
T2 construct: purchased Upstate
The experiment in a line: In vitro IC50, PI3K α. Type of assay: biochemical.
Text: as §1

A further assay deals with B cell. The experiment in a line: B cell proliferation. Type of assay: cell-based.
Another assay addresses PI3K δ (Homo sapiens, UniProt O00329). As to the kind of experiment: In vitro IC50, PI3K δ. It counts as biochemical. The arrangement: purchased Upstate.
Text: as §1

T2 sequence (P42336 whole entry): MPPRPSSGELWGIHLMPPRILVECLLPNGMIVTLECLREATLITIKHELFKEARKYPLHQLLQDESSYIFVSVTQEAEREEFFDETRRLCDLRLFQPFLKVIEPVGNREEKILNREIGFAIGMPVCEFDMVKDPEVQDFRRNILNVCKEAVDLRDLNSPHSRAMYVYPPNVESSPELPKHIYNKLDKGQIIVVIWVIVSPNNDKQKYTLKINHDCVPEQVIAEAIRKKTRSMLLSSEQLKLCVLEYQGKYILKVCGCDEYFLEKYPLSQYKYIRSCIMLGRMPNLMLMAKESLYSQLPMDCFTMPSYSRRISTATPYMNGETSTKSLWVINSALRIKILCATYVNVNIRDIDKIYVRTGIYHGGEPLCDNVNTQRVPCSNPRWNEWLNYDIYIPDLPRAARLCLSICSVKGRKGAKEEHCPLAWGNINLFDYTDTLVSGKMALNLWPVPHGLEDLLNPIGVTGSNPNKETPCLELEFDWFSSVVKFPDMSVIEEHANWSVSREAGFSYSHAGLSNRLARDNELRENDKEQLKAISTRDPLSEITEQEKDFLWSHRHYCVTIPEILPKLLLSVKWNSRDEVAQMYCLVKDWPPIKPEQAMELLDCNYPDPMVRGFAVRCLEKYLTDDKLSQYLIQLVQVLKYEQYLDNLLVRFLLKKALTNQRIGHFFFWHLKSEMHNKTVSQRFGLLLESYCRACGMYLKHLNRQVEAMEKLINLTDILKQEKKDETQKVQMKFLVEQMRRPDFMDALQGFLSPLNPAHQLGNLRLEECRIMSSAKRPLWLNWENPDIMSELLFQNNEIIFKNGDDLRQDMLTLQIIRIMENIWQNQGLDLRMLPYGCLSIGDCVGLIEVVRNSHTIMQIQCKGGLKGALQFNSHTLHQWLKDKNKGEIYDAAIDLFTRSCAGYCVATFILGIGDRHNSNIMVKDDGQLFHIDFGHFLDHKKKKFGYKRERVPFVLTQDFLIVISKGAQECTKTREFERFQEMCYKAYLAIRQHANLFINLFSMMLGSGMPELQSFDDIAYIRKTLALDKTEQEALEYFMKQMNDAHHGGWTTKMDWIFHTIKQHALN
T2 sequence (P27986 whole entry partner): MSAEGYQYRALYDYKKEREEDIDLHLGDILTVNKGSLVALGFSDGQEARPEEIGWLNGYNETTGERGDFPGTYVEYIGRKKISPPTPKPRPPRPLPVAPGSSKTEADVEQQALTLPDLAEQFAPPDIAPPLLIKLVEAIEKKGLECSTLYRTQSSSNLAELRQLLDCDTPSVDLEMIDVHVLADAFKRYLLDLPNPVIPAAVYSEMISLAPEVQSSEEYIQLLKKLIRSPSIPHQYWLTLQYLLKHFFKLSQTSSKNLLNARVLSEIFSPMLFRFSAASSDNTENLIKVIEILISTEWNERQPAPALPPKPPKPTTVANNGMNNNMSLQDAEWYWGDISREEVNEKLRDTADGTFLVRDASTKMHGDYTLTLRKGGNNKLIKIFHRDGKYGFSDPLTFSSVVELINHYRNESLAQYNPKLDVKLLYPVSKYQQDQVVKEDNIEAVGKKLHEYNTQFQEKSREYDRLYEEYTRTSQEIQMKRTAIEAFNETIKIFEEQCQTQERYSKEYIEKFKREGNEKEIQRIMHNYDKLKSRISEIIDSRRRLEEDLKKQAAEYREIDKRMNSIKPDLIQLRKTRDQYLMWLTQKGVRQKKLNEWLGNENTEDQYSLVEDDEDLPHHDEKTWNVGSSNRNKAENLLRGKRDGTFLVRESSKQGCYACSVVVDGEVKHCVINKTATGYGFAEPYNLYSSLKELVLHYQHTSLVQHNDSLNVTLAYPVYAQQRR
T1 sequence (P48736 whole entry): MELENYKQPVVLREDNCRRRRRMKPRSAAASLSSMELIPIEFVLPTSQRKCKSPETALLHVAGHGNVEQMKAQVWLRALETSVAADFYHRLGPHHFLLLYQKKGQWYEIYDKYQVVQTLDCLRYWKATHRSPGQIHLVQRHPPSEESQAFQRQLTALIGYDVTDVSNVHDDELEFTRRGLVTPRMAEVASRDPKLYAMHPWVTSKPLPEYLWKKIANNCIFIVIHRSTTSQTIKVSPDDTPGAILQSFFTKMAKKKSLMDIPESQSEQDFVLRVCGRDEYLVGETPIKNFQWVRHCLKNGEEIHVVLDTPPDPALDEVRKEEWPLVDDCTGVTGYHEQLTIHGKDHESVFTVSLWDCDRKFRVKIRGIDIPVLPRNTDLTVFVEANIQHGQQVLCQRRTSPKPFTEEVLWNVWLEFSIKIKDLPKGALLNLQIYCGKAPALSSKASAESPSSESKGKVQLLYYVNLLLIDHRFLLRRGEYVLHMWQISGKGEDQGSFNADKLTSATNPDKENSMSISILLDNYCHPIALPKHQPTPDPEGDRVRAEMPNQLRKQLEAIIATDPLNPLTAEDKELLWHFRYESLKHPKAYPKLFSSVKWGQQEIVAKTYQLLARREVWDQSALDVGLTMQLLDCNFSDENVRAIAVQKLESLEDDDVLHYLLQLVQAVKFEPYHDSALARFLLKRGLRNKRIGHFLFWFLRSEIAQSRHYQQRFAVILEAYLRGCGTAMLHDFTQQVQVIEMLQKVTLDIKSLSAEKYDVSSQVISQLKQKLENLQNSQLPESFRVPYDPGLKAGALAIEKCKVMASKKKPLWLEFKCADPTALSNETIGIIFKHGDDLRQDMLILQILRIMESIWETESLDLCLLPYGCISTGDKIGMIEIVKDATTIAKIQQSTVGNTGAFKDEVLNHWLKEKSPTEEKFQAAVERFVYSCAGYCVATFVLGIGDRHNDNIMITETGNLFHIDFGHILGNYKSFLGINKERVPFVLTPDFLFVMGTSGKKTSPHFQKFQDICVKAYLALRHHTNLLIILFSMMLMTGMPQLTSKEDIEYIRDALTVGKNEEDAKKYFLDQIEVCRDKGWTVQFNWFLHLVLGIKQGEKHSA
Chain of PI3K δ (O00329 whole entry): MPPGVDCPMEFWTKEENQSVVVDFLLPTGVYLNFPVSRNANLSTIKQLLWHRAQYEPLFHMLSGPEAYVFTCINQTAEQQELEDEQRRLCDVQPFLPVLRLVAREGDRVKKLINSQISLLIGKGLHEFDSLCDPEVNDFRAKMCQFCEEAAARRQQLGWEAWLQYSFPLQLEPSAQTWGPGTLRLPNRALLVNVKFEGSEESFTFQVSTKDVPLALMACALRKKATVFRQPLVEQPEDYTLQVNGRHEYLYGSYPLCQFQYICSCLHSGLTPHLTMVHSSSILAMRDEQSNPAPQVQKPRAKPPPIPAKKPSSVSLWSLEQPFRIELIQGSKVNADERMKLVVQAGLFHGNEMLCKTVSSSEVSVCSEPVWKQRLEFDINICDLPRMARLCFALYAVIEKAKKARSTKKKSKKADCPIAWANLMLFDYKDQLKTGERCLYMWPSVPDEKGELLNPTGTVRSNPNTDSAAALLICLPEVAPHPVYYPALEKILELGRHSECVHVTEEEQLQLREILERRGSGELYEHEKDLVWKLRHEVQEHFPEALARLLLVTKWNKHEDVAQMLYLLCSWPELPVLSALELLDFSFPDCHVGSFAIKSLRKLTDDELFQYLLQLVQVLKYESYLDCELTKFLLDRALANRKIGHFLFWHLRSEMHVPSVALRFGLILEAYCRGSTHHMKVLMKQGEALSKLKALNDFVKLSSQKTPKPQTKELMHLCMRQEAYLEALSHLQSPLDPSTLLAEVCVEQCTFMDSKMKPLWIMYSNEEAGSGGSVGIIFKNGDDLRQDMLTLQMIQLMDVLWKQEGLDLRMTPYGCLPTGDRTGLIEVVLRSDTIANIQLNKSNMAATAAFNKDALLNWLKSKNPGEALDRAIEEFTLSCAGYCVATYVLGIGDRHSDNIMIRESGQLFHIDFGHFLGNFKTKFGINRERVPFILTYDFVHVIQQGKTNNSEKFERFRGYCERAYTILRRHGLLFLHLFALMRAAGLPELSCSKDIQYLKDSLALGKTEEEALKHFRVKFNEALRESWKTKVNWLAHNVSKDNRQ
Chain of PI3K δ (P27986 whole entry partner): as the sequence (P27986 whole entry partner) above

For the molecule `Cc1ccccc1-n1c(Cn2nc(I)c3c(N)ncnc32)cc2cccc(C)c2c1=O` [Compound 6], the pIC50 – broadly, the negative decadic logarithm of the IC50, by convention in mol/L – at PI3K γ is greater than 7.00; against PI3K α, less than 5.00; on PI3K δ it was greater than 7.00. The pEC50 (in general, −log10 of the EC50, conventionally taken in molar units) with B cell was greater than 7.00.
